Each compound was assayed against T1, human GCS (glucosylceramide synthase) (Homo sapiens, UniProt Q16739) (assay: Glucosylceramide Synthase (GCS) Assay). Conditions: test compound 10 μM; microsome fraction of Expi293F cells expressing human GCS; 1.7 μM UDP-glucose, 3 μM C8 ceramide; room temperature 60 min; C8 glucosylceramide by Rapidfire MS/MS; read-out: GCS enzyme inhibitory rate at 10 μM (%).
T1 construct: made in house; host or cells: Expi293F cells (transient expression; microsome fraction)
T1 sequence (Q16739 1-394): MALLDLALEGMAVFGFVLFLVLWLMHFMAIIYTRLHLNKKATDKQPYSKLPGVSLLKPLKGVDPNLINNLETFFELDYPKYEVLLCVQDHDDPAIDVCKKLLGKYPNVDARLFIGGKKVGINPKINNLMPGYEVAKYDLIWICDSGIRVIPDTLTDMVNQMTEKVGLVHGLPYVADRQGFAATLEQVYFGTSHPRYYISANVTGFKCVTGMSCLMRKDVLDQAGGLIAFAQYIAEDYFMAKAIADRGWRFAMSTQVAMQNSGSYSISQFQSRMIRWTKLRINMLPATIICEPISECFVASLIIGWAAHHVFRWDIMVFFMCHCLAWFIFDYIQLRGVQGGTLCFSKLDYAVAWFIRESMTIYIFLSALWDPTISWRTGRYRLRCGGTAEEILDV
Assay type: biochemical
Protocol: In enzyme assay, a microsome fraction obtained by transient expression by Expi293F™ cells (catalog number: A14527, Thermo Fisher Scientific) was used as a glucosylceramide synthase source. Liposomal C8 ceramide and UDP-glucose were used as substrates. For each substrate concentration, 1.7 μM UDP-glucose, which is equal to the Km value, and 3 μM C8 ceramide were used. After the enzymatic reaction, the analysis was performed with Rapidfire MS/MS (API-4000™, SCIEX), and C8 glucosylceramide was quantified to evaluate the inhibitory activity of the test compound against glucosylceramide synthase activity.
PcDNA3.3TOPO vector (catalog number: K830001, Thermo Fisher Scientific) into which the human GCS gene was inserted was introduced into Expi293F™ Cells (catalog number: A14527, Thermo Fisher Scientific) by using ExpiFectamine™ 293 Transfection Kit (catalog number: A14525, Thermo Fisher Scientific). The cultured cells were dissolved in D-PBS (catalog number: 048-29805, Fuji Film Wako Pure Chemical Industries, Ltd.) containing 1 mM PMSF, and the solution was allowed to stand on ice for 30 minutes, and then subjected to cell disruption (homogenized). The disruption solution was centrifuged at 10,000×g for 20 minutes at 4° C., and the obtained supernatant was centrifuged at 142,400×g for 60 minutes at 4° C. The obtained precipitate was resuspended in a D-PBS solution containing 1 mM PMSF, and homogenized again to prepare as a microsome fraction. Protein quantification was performed by the CBB method.
A 1 mM compound solution prepared by dissolving the test compound in DMSO was added to a 384-well plate by 100 nL so that the final concentration of the test compound was 10 μM. Next, a substrate solution consisting of 3.4 μM UDP-glucose and 6 μM C8 ceramide was added by 5 μL, followed by an enzyme solution consisting of a 25 μg/mL microsome fraction by 5 μL. C8 ceramide was prepared from liposomes composed of 15 mol % C8 ceramide and 85 mol % dioleoyl phosphatidylcholine (1,2-dioleoyl-sn-glycero-3-phosphocholine: DOPC). The enzymatic reaction was carried out in a solution consisting of 20 mM tris-hydrochloric acid buffer (pH 7.5), 0.01% Tween 20, 0.01% bovine serum albumin and 1 mM dithiothreitol at room temperature for 60 min. Then, a solution consisting of 75% isopropanol and 1% formic acid containing 0.25 μM N-Octadecanoyl-D35-psichosine (catalog number: 1914, Matreya) as an internal standard substance was added by 60 μL to stop the enzymatic reaction. 5 μL of the centrifugal supernatant of the obtained reaction product was analyzed by Rapidfire MS/MS (Agilent Technologies) using API-4000™ (SCIEX), and the C8 glucosylceramide was quantified to evaluate the inhibitory activity of the test compound against the glucosylceramide synthase activity. The inhibitory activity of the test compound was evaluated when the C8 glucosylceramide level in the enzyme-free solution was considered as 100% inhibitory and the enzyme activity of the DMSO group in the absence of the compound was considered as 0% inhibitory.

Structure (SMILES)	inhibition at 10 µM [%]
COc1cc(F)ccc1-n1nccc(C(=O)Nc2ccc(OCC(F)(F)F)nc2)c1=O [Example 23, 2-(4-fluoro-2-methoxyphenyl)-3-oxo-N-[6-(2,2,2-trifluoroethoxy)pyridin-3-yl]-2,3-dihydropyridazine-4-carboxamide]	87
N#Cc1ccc(NC(=O)c2cccn(-c3ccccc3OCC(F)(F)F)c2=O)cn1 [Example 24, N-(6-cyanopyridin-3-yl)-2-oxo-1-[2-(2,2,2-trifluoroethoxy)phenyl]-1,2-dihydropyridine-3-carboxamide]	98
O=C(Nc1ccc(OCC(F)(F)F)nc1)c1cccn(-c2ccc(F)cc2N2CCOCC2)c1=O [Example 25, 1-[4-fluoro-2-(morpholin-4-yl)phenyl]-2-oxo-N-[6-(2,2,2-trifluoroethoxy)pyridin-3-yl]-1,2-dihydropyridine-3-carboxamide]	81
N#Cc1cc(F)ccc1-n1cccc(C(=O)Nc2ccc(Oc3ccccc3)cc2)c1=O [Example 30, 1-(2-cyano-4-fluorophenyl)-2-oxo-N-(4-phenoxyphenyl)-1,2-dihydropyridine-3-carboxamide]	55
N#Cc1ccc(NC(=O)c2cccn(-c3ccccc3OCC(F)(F)F)c2=O)nc1 [Example 31, N-(5-cyanopyridin-2-yl)-2-oxo-1-[2-(2,2,2-trifluoroethoxy)phenyl]-1,2-dihydropyridine-3-carboxamide]	92
CC(C)Cn1cc(NC(=O)c2cccn(-c3ccc(F)cc3OCC(F)(F)F)c2=O)cn1 [Example 33, 1-[4-fluoro-2-(2,2,2-trifluoroethoxy)phenyl]-N-[1-(2-methylpropyl)-1H-pyrazol-4-yl]-2-oxo-1,2-dihydropyridine-3-carboxamide]	76
O=C(Nc1ccc(CN2CCOCC2)cc1)c1cccn(-c2ccc(F)cc2OCC(F)(F)F)c1=O [Example 35, 1-[4-fluoro-2-(2,2,2-trifluoroethoxy)phenyl]-N-{4-[(morpholin-4-yl)methyl]phenyl}-2-oxo-1,2-dihydropyridine-3-carboxamide]	85
O=C(Nc1ccc(C(F)(F)F)nn1)c1cccn(-c2ccc(F)cc2OCC(F)(F)F)c1=O [Example 38, 1-[4-fluoro-2-(2,2,2-trifluoroethoxy)phenyl]-2-oxo-N-[6-(trifluoromethyl)pyridazin-3-yl]-1,2-dihydropyridine-3-carboxamide]	97
O=C(Nc1cnn(CC2CC2)c1)c1cccn(-c2ccc(F)cc2OCC(F)(F)F)c1=O [Example 40, N-[1-(cyclopropylmethyl)-1H-pyrazol-4-yl]-1-[4-fluoro-2-(2,2,2-trifluoroethoxy)phenyl]-2-oxo-1,2-dihydropyridine-3-carboxamide]	69
N#Cc1ccc(NC(=O)c2cccn(-c3ccc(F)cc3OCC(F)(F)F)c2=O)cc1 [Example 41, N-(4-cyanophenyl)-1-[4-fluoro-2-(2,2,2-trifluoroethoxy)phenyl]-2-oxo-1,2-dihydropyridine-3-carboxamide]	88
CC(C)(O)c1ccc(NC(=O)c2cccn(-c3ccc(F)cc3OCC(F)(F)F)c2=O)cc1 [Example 42, 1-[4-fluoro-2-(2,2,2-trifluoroethoxy)phenyl]-N-[4-(2-hydroxypropan-2-yl)phenyl]-2-oxo-1,2-dihydropyridine-3-carboxamide]	99
O=C(Nc1ccc(C(=O)N2CCCCC2)cc1)c1cccn(-c2ccc(F)cc2OCC(F)(F)F)c1=O [Example 43, 1-[4-fluoro-2-(2,2,2-trifluoroethoxy)phenyl]-2-oxo-N-[4-(piperidine-1-carbonyl)phenyl]-1,2-dihydropyridine-3-carboxamide]	95
O=C(Nc1ccc(OCC2CC2)cc1)c1cccn(-c2ccc(F)cc2OCC(F)(F)F)c1=O [Example 50, N-[4-(cyclopropylmethoxy)phenyl]-1-[4-fluoro-2-(2,2,2-trifluoroethoxy)phenyl]-2-oxo-1,2-dihydropyridine-3-carboxamide]	100
O=C(Nc1cnc(OC(F)F)nc1)c1cccn(-c2ccc(F)cc2OCC(F)(F)F)c1=O [Example 51, N-[2-(difluoromethoxy)pyrimidin-5-yl]-1-[4-fluoro-2-(2,2,2-trifluoroethoxy)phenyl]-2-oxo-1,2-dihydropyridine-3-carboxamide]	84

Continued, values first:

inhibition at 10 µM [%]	Structure (SMILES)
100	O=C(Nc1ccc(OCC(F)(F)F)nc1)c1cccn(-c2ccc(F)cc2OCC(F)(F)F)c1=O [Example 26, 1-[4-fluoro-2-(2,2,2-trifluoroethoxy)phenyl]-2-oxo-N-[6-(2,2,2-trifluoroethoxy)pyridin-3-yl]-1,2-dihydropyridine-3-carboxamide]
75	COCCOc1cc(F)ccc1-n1cccc(C(=O)Nc2ccc(OCC(F)(F)F)nc2)c1=O [Example 27, 1-[4-fluoro-2-(2-methoxyethoxy)phenyl]-2-oxo-N-[6-(2,2,2-trifluoroethoxy)pyridin-3-yl]-1,2-dihydropyridine-3-carboxamide]
97	O=C(Nc1ccc(OCC(F)(F)F)nc1)c1ccnn(-c2ccc(F)cc2OCC(F)(F)F)c1=O [Example 29, 2-[4-fluoro-2-(2,2,2-trifluoroethoxy)phenyl]-3-oxo-N-[6-(2,2,2-trifluoroethoxy)pyridin-3-yl]-2,3-dihydropyridazine-4-carboxamide]
86	O=C(Nc1cnc(C(F)(F)F)nc1)c1cccn(-c2ccc(F)cc2OCC(F)(F)F)c1=O [Example 36, 1-[4-fluoro-2-(2,2,2-trifluoroethoxy)phenyl]-2-oxo-N-[2-(trifluoromethyl)pyrimidin-5-yl]-1,2-dihydropyridine-3-carboxamide]
83	O=C(Nc1cnc(C(F)(F)F)cn1)c1cccn(-c2ccc(F)cc2OCC(F)(F)F)c1=O [Example 37, 1-[4-fluoro-2-(2,2,2-trifluoroethoxy)phenyl]-2-oxo-N-[5-(trifluoromethyl)pyrazin-2-yl]-1,2-dihydropyridine-3-carboxamide]
70	O=C(Nc1cnn(CC(F)(F)F)c1)c1cccn(-c2ccc(F)cc2OCC(F)(F)F)c1=O [Example 48, 1-[4-fluoro-2-(2,2,2-trifluoroethoxy)phenyl]-2-oxo-N-[1-(2,2,2-trifluoroethyl)-1H-pyrazol-4-yl]-1,2-dihydropyridine-3-carboxamide]
97	O=C(Nc1ccc(C(F)F)nc1)c1cccn(-c2ccc(F)cc2OCC(F)(F)F)c1=O [Example 49, N-[6-(difluoromethyl)pyridin-3-yl]-1-[4-fluoro-2-(2,2,2-trifluoroethoxy)phenyl]-2-oxo-1,2-dihydropyridine-3-carboxamide]
85	N#Cc1cc(F)ccc1-n1cccc(C(=O)Nc2ccc(OCC(F)(F)F)nc2)c1=O [Example 52, 1-(2-cyano-4-fluorophenyl)-2-oxo-N-[6-(2,2,2-trifluoroethoxy)pyridin-3-yl]-1,2-dihydropyridine-3-carboxamide]
100	O=C(Nc1ccc(OCC(F)(F)F)nc1)c1cccn(-c2ccc(F)cc2OCC(F)(F)C(F)(F)F)c1=O [Example 56, 1-[4-fluoro-2-(2,2,3,3,3-pentafluoropropoxy)phenyl]-2-oxo-N-[6-(2,2,2-trifluoroethoxy)pyridin-3-yl]-1,2-dihydropyridine-3-carboxamide]

From patent publication US20220289679A1, “HETEROCYCLIC COMPOUND” (Takeda Pharmaceutical Company Limited, priority 2019, published 2022)
